Laboratory results taken from publication PMC8955485, “Journey on VX-809-Based Hybrid Derivatives towards Drug-like F508del-CFTR Correctors: From Molecular Modeling to Chemical Synthesis and Biological Assays” (Pharmaceuticals, 2022).
Values joined by “and” are separate entries in the source; they are usually repeats but may differ in a detail not shown here. Equal entries are not always repeated. Where two headings read alike, the source gives them in different places.

Tests used:
[1] = molecular target: T1, F508del-CFTR (Homo sapiens, UniProt P13569, DEL508-508); set-up: expressed in transfected cells; conditions: first series of hybrids, cited from earlier work; for pEC50: from EC50 of ref 27
[2] = molecular target: T1, F508del-CFTR; experiment: HS-YFP functional assay for F508del-CFTR correctors in CFBE41o- cells; type: cell-based; set-up: expressed in transfected cells; conditions: for EC50: CFBE41o- cells stably expressing F508del-CFTR and HS-YFP, 24 h incubation, stimulation with forskolin 20 µM plus VX-770 1 µM; for F508del-CFTR corrector activity (in words): CFBE41o- cells, HS-YFP assay, 24 h
Description: The ability of these compounds to correct the basic defects related to F508del mutant was evaluated on immortalized CFBE41o-bronchial epithelial cells stably expressing F508del-CFTR and the halide sensitive yellow fluorescent protein (HS-YFP).
The measurements of the rate of HS-YFP quenching caused by iodide influx allowed us to determine the activity of F508del-CFTR, after incubation with the compounds, as cited. Activity was then compared to that of cells treated with the corrector VX-809 (1 µM) or with vehicle alone (DMSO).
Within the novel third series of hybrids herein proposed, based on their potency and efficacy in terms of CFTR rescue, we selected six compounds and determined the dose–response relationships (Figure 6). To this aim, F508del-CFTR expressing CFBE41o-cells were treated for 24 h with our hybrids 9b, 9f, 9g, 9h, 9j, and 9y and then mutant CFTR activity was measured by using the YFP functional assay (see Materials and Methods section for details).
Immortalized bronchial epithelial CFBE41o-cells with stable co-expression of the halide-sensitive yellow fluorescent protein (HS-YFP) and of F508del-CFTR were cultured using MEM medium supplemented with 10% fetal calf serum, 100 U/mL penicillin, 2 mM L-glutamine, and […] streptomycin.
CFBE41o-cells co-expressing mutants CFTR and HS-YFP were plated (50,000 cells/well) on clear-bottom 96-well black microplates (Corning Life Sciences, Acton, MA) and grown at 37 °C in 5% CO2 for 24 h. For the corrector assay, CFBE41o-cells were treated for further 24 h with compounds as indicated. The following day, prior to the assay, the culture medium was removed and cells were stimulated for 30 min at 37 °C with 60 µL PBS (containing 137 mM NaCl, 2.7 mM KCl, 8.1 mM Na2HPO4, 1.5 mM KH2PO4, 1mM CaCl2, and 0.5 mM MgCl2) plus forskolin (20 µM) and VX-770 (1 µM).
Microplates containing CFBE41o-cells were then transferred to a plate reader (FluoStar Galaxy; BMG Labtech, Offenburg, Germany) equipped with excitation (HQ500/20X: 500 ± 10 nm) and emission (HQ535/30M: 535 ± 15 nm) filters for YFP (Chroma Technology, Brattleboro, VT, USA). During the assay fluorescence was measured continuously for 14 s with 2 s before and 12 s after injection of an iodide containing solution (165 µL of a modified PBS containing I^- instead of Cl^-; final I^- concentration in the well: 100 mM).
Fluorescence data were normalized for the initial value and fluorescence quenching rate following I^- influx, were determined by fitting the final 10 s of data for each well with an exponential function to extrapolate initial slope (dF/dt).
To evaluate the dose–response relationships, activity slopes obtained for each compound at the different concentrations were fitted with the Hill equation using the Igor software (WaveMetrics) to extrapolate EC50, maximal effect, and Hill coefficient.

T1 sequence (P13569 with tags, fused parts or gaps DEL508-508): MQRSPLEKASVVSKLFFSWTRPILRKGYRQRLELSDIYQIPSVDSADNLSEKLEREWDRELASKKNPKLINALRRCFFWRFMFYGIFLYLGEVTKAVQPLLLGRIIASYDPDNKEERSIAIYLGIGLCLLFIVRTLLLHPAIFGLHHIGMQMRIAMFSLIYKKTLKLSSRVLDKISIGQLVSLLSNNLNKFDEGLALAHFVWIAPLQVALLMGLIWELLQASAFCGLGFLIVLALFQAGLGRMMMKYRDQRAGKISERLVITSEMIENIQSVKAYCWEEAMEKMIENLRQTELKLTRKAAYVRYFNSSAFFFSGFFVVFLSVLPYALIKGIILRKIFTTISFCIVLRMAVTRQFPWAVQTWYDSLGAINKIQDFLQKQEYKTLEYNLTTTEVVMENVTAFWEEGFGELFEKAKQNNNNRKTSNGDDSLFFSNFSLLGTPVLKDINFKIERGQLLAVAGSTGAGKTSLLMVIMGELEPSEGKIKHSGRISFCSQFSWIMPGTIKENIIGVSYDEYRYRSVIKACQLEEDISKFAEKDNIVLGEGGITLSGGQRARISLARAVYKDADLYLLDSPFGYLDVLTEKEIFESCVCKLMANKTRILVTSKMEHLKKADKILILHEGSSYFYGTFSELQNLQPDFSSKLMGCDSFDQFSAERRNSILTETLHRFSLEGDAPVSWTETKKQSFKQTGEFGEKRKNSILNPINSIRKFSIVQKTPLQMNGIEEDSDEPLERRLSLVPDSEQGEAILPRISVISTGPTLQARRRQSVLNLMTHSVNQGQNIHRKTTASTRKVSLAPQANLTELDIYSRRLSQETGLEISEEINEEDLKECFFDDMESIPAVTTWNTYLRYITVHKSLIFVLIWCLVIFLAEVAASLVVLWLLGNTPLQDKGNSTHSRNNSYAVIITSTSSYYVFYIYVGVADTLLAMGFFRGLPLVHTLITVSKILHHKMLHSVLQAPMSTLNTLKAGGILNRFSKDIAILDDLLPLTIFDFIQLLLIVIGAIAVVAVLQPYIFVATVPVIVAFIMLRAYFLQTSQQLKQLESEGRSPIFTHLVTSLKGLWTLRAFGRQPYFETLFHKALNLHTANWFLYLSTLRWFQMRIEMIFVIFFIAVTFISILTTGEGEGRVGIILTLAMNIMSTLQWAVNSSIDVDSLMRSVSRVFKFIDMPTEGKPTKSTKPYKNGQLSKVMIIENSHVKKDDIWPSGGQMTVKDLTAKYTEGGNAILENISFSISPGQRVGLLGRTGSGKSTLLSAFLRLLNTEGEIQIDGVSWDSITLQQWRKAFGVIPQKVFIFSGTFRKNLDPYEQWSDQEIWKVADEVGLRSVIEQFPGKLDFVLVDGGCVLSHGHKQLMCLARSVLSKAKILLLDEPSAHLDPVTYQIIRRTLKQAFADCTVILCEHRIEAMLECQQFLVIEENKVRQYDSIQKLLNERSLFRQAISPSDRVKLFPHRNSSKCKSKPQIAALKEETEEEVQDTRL

EC50 [2] | SMILES | EC50 [1] | pEC50 [1] | F508del-CFTR corrector activity (in words) [2]
– | O=C(O)c1ccc(-c2csc(NC(=O)C3(c4ccc5c(c4)OCO5)CC3)n2)cc1 [Compound 5e] | > 5 µM and 5 µM | 5.30 M | –
– | O=C(Nc1nc(-c2ccc(I)cc2)cs1)C1(c2ccc3c(c2)OCO3)CC1 [Compound 4d] | 1.2 µM | 5.92 M | –
– | O=C(Nc1nc(-c2ccc(Br)cc2)cs1)C1(c2ccc3c(c2)OCO3)CC1 [Compound 4b] | 4.9 µM | 5.31 M | –
0.22 µM | COc1ccc(C(=O)c2sc(NC(=O)C3(c4ccc5c(c4)OCO5)CC3)nc2-c2ccccc2OC)cc1 [Compound 9p, 1-(benzo[d][1,3]dioxol-5-yl)-N-(5-(4-methoxybenzoyl)-4-(2-methoxyphenyl)thiazol-2-yl)cyclopropanecarboxamide] | – | – | –
– | CC(Cc1ccc2c(c1)OCO2)C(=O)Nc1nc(-c2ccccc2)c(C(=O)c2ccccc2)s1 (stereo not shown) [Compound 13b] | – | – | not tolerated
– | O=C(Nc1nc(-c2ccc(O)cc2)cs1)C1(c2ccc3c(c2)OCO3)CC1 [Compound 5a] | 1.8 µM | 5.74 M | –
– | O=C(/C=C\c1ccc2c(c1)OCO2)Nc1nc(-c2ccccc2)c(C(=O)c2ccccc2)s1 [Compound 14b] | – | – | not tolerated
– | CCOC(=O)c1sc(NC(=O)C2(c3ccc4c(c3)OCO4)CC2)nc1-c1cccc(Cl)c1 [Compound 2c] | 0.55 µM | 6.26 M | –
0.15 µM | COc1ccccc1-c1nc(NC(=O)C2(c3ccc4c(c3)OCO4)CC2)sc1C(=O)c1ccc(OC(F)(F)F)cc1 [Compound 9q] | – | – | –
0.64 µM | O=C(c1ccc(-c2ccccc2)cc1)c1sc(NC(=O)C2(c3ccc4c(c3)OCO4)CC2)nc1-c1ccc(Cl)cc1 [Compound 9u, N-(5-([1,1′-biphenyl]-4-carbonyl)-4-(4-chlorophenyl)thiazol-2-yl)-1-(benzo[d][1,3]dioxol-5-yl)cyclopropane-1-carboxamide] | – | – | –
– | Cc1sc(NC(=O)C2(c3ccc4c(c3)OCO4)CC2)nc1-c1cccc(Cl)c1 [Compound 3c] | 2.3 µM | 5.64 M | –
0.21 µM | COc1cccc(C(=O)c2sc(NC(=O)C3(c4ccc5c(c4)OCO5)CC3)nc2-c2cccc(OC)c2)c1 [Compound 9o] | – | – | –
– | O=C(Cc1ccc2c(c1)OCO2)Nc1nc(-c2ccccc2)c(C(=O)c2ccccc2)s1 [Compound 12b] | – | – | inactive
– | O=C(Nc1nc(-c2cccc(O)c2)cs1)C1(c2ccc3c(c2)OCO3)CC1 [Compound 5b] | 2.3 µM | 5.64 M | –
– | Cc1sc(NC(=O)C2(c3ccc4c(c3)OC(F)(F)O4)CC2)nc1-c1cccc(Cl)c1 [Compound 6b] | 5.4 µM | 5.27 M | –
0.13 µM | CSc1ccc(-c2nc(NC(=O)C3(c4ccc5c(c4)OCO5)CC3)sc2C(=O)c2ccc(-c3ccccc3)cc2)cc1 [Compound 9s, N-(5-([1,1′-biphenyl]-4-carbonyl)-4-(4-(methylthio)phenyl)thiazol-2-yl)-1-(benzo[d][1,3]dioxol-5-yl)cyclopropane-1-carboxamide] | – | – | –
– | Cc1sc(NC(=O)C2(c3ccc4c(c3)OC(F)(F)O4)CC2)nc1-c1ccc(Br)cc1 [Compound 6a] | 3.8 µM | 5.42 M | –
1.52 µM | COc1cccc(C(=O)c2sc(NC(=O)C3(c4ccc5c(c4)OCO5)CC3)nc2-c2cccnc2)c1 [Compound 9w] | – | – | –
0.6 µM | COc1cccc(-c2nc(NC(=O)C3(c4ccc5c(c4)OCO5)CC3)sc2C(=O)c2ccc(N3CCCC3)cc2)c1 [Compound 9n] | – | – | –
0.14 µM | COc1ccc(-c2nc(NC(=O)C3(c4ccc5c(c4)OCO5)CC3)sc2C(=O)c2ccc(-c3ccccc3)cc2)cc1 [Compound 9f] | – | – | –
0.19 µM | COc1ccc(C(=O)c2sc(NC(=O)C3(c4ccc5c(c4)OCO5)CC3)nc2-c2cccc(OC)c2)cc1 [Compound 9i, 1-(benzo[d][1,3]dioxol-5-yl)-N-(5-(4-methoxybenzoyl)-4-(3-methoxyphenyl)thiazol-2-yl)cyclopropane-1-carboxamide] | – | – | –

EC50 [2] | SMILES | EC50 [1] | pEC50 [1] | F508del-CFTR corrector activity (in words) [2]
– | O=C(Nc1nc(-c2ccc(Cl)cc2)cs1)C1(c2ccc3c(c2)OCO3)CC1 [Compound 4a] | 2.9 µM | 5.54 M | –
– | Cc1sc(NC(=O)C2(c3ccc4c(c3)OCO4)CC2)nc1-c1ccccc1 [Compound 3d] | 1.6 µM | 5.80 M | –
– | Cc1sc(NC(=O)C2(c3ccc4c(c3)OCO4)CC2)nc1-c1ccc(C(=O)O)cc1 [Compound 5f] | 2.9 µM | 5.54 M | –
0.37 µM | COc1cccc(C(=O)c2sc(NC(=O)C3(c4ccc5c(c4)OCO5)CC3)nc2-c2ccc(Cl)cc2)c1 [Compound 9x] | – | – | –
0.12 µM | COc1ccc(-c2nc(NC(=O)C3(c4ccc5c(c4)OCO5)CC3)sc2C(=O)c2cccc(OC)c2)cc1 [Compound 9h] | – | – | –
– | Cc1sc(NC(=O)C2(c3ccc4c(c3)OCO4)CC2)nc1-c1cccc(O)c1 [Compound 5c] | 1.2 µM | 5.92 M | –
– | O=C(Nc1nc(-c2cccc(O)c2)cs1)C1(c2ccc3c(c2)OC(F)(F)O3)CC1 [Compound 6c] | 1.3 µM | 5.89 M | –
– | O=C(Nc1nc(-c2cccc(Cl)c2)cs1)C1(c2ccc3c(c2)OCO3)CC1 [Compound 4c] | 8.2 µM | 5.09 M | –
– | O=C(Nc1nc(-c2ccc(O)cc2)cs1)C1(c2ccc3c(c2)OC(F)(F)O3)CC1 [Compound 6d] | 1.7 µM | 5.77 M | –
0.1 µM | COc1ccc(-c2nc(NC(=O)C3(c4ccc5c(c4)OCO5)CC3)sc2C(=O)c2ccc(SC)cc2)cc1 [Compound 9d] | – | – | –
– | O=C(Nc1nc(-c2cccc(F)c2)cs1)C1(c2ccc3c(c2)OCO3)CC1 [Compound 4e] | 2.1 µM | 5.68 M | –
0.3 µM | CSc1ccc(C(=O)c2sc(NC(=O)C3(c4ccc5c(c4)OCO5)CC3)nc2-c2ccc(SC)cc2)cc1 [Compound 9z] | – | – | –
– | CCOC(=O)c1sc(NC(=O)C2(c3ccc4c(c3)OCO4)CC2)nc1-c1ccc(Cl)cc1 [Compound 2d] | 0.9 µM | 6.05 M | –
0.12 µM | COC(=O)c1ccc(-c2nc(NC(=O)C3(c4ccc5c(c4)OCO5)CC3)sc2C(=O)c2ccc(-c3ccccc3)cc2)cc1 [Compound 9r, Methyl 4-(5-([1,1′-biphenyl]-4-carbonyl)-2-(1-(benzo[d][1,3]dioxol-5-yl)cyclopropane-1-carboxamido)thiazol-4-yl)benzoate] | – | – | –
– | O=C(c1ccccc1)c1sc(NC(=O)C2(c3ccc4c(c3)OCO4)CC2)nc1-c1ccccc1 [Compound 2a] | 0.087 µM | 7.06 M | –
– | Cc1sc(NC(=O)C2(c3ccc4c(c3)OCO4)CC2)nc1-c1ccc(F)cc1 [Compound 3e] | 0.9 µM | 6.05 M | –
– | Cc1sc(NC(=O)C2(c3ccc4c(c3)OCO4)CC2)nc1-c1ccc(O)cc1 [Compound 5d] | 3.9 µM | 5.41 M | –
– | Cc1sc(NC(=O)C2(c3ccc4c(c3)OCO4)CC2)nc1-c1ccc(Br)cc1 [Compound 3b] | 1.9 µM | 5.72 M | –
– | CCOC(=O)c1sc(NC(=O)C2(c3ccc4c(c3)OCO4)CC2)nc1-c1ccc(Br)cc1 [Compound 2b] | 0.3 µM | 6.52 M | –
– | CC(=O)Nc1ccc(-c2csc(NC(=O)C3(c4ccc5c(c4)OCO5)CC3)n2)cc1 [Compound 5g] | > 5 µM and 5 µM | 5.30 M | –
– | Cc1sc(NC(=O)C2(c3ccc4c(c3)OCO4)CC2)nc1-c1ccc(Cl)cc1 [Compound 3a] | 2.9 µM | 5.54 M | –
